≈ marks a conversion by molar mass, not a printed value.
Assays:
efflux protein = target: T1, efflux protein (Escherichia coli, UniProt P02980); assay: everted membrane vesicle assay, blocking activity of 13-S-derivatives; format: biochemical; settings: blocking activity against the efflux protein, everted membrane vesicle assay
T1 sequence (P02980 1-401): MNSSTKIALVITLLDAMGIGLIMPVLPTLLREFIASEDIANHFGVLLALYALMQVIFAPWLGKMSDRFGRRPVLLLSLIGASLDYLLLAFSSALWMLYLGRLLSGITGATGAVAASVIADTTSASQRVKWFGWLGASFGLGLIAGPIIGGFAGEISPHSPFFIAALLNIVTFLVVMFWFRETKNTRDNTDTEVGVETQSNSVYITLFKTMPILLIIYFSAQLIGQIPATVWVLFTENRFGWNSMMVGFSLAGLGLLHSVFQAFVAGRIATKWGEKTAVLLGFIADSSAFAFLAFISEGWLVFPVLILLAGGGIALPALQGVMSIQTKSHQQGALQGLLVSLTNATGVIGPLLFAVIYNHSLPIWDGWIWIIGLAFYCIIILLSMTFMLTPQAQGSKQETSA

E. coli DI-299 (Tet A) = assay: MIC/MLC chart, analog with and without doxycycline; format: cell-based; design: key to growth/killing, Analog + Doxy / growth/killing, Doxy Control / growth/killing, Analog Control / growth in MIC/MLC chart: +=growth; 0=no growth (MIC); ↓=killing; ? =99.9% killing (MLC); □=no growth, but no microbiologic testing;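 also: bacterial growth inhibition and killing in broth, each agent tested alone or combined with doxycycline across two-fold serial dilutions, overnight incubation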
S. aureus 4250 (Tet K) = assay: MIC/MLC chart, analog with and without doxycycline; format: cell-based
E. faecalis 158 (Tet L) = assay: MIC/MLC chart, analog with and without doxycycline; format: cell-based
E. faecalis 211 (Tet M) = assay: MIC/MLC chart, analog with and without doxycycline; format: cell-based
[1] = Doxy Control: doxycycline alone 1.56 μg/ml
[2] = Doxy Control: doxycycline alone 3.12 μg/ml
[3] = Doxy Control: doxycycline alone 6.25 μg/ml
[4] = Doxy Control: doxycycline alone 12.5 μg/ml
[5] = Analog Control: analog alone 1.56 μg/ml
[6] = Analog Control: analog alone .195 μg/ml
[7] = Analog Control: analog alone .39 μg/ml
[8] = Analog Control: analog alone .78 μg/ml
[9] = analog 1.56 μg/ml + doxycycline 1.55 μg/ml
[10] = analog 1.56 μg/ml + doxycycline 3.1 μg/ml
[11] = analog 1.56 μg/ml + doxycycline 6.2 μg/ml
[12] = analog .195 μg/ml + doxycycline 1.56 μg/ml
[13] = analog .195 μg/ml + doxycycline 3.12 μg/ml
[14] = analog .195 μg/ml + doxycycline 6.25 μg/ml
[15] = analog .195 μg/ml + doxycycline 12.5 μg/ml
[16] = analog .39 μg/ml + doxycycline 1.56 μg/ml
[17] = analog .39 μg/ml + doxycycline 3.12 μg/ml
[18] = analog .39 μg/ml + doxycycline 6.25 μg/ml
[19] = analog .39 μg/ml + doxycycline 12.5 μg/ml
[20] = analog .78 μg/ml + doxycycline 1.56 μg/ml
[21] = analog .78 μg/ml + doxycycline 3.12 μg/ml
[22] = analog .78 μg/ml + doxycycline 6.23 μg/ml

## CN(C)C1C(O)=C(C(N)=O)C(=O)C2(O)C(O)=C3C(=O)c4c(O)cccc4C(CSCc4ccc(Cl)cc4)C3C(O)C12 (stereo not shown) [p-Cl-Benzyl]
Efflux protein
  Ki: 1.5 µg/mL (≈ 2.5 µM)

## C[C@H]1c2cccc(O)c2C(O)=C2C(=O)[C@]3(O)C(O)=C(C(N)=O)C(=O)[C@@H](N(C)C)[C@@H]3[C@@H](O)[C@@H]21 [Doxy, Doxycycline, reference compound]
E. coli DI-299 (Tet A); [1]
  growth in MIC/MLC chart: +
E. coli DI-299 (Tet A); [2]
  growth in MIC/MLC chart: +
E. coli DI-299 (Tet A); [3]
  growth in MIC/MLC chart: +
E. coli DI-299 (Tet A); [4]
  growth in MIC/MLC chart: +
E. coli DI-299 (Tet A); Doxy Control: doxycycline alone 25.0 μg/ml
  growth in MIC/MLC chart: +
E. coli DI-299 (Tet A); Doxy alone 1.56 μg/ml
  growth/killing, Doxy Control: +
E. coli DI-299 (Tet A); Doxy alone 3.12 μg/ml
  growth/killing, Doxy Control: +
E. coli DI-299 (Tet A); Doxy alone 6.25 μg/ml
  growth/killing, Doxy Control: +
E. coli DI-299 (Tet A); Doxy alone 12.5 μg/ml
  growth/killing, Doxy Control: +
E. coli DI-299 (Tet A); Doxy alone 25.0 μg/ml
  growth/killing, Doxy Control: +
S. aureus 4250 (Tet K); [1]
  growth in MIC/MLC chart: +
S. aureus 4250 (Tet K); [2]
  growth in MIC/MLC chart: +
S. aureus 4250 (Tet K); [3]
  growth in MIC/MLC chart: +
S. aureus 4250 (Tet K); [4]
  growth in MIC/MLC chart: +
S. aureus 4250 (Tet K); Doxy alone 1.56 μg/ml
  growth/killing, Doxy Control: +
S. aureus 4250 (Tet K); Doxy alone 3.12 μg/ml
  growth/killing, Doxy Control: +
S. aureus 4250 (Tet K); Doxy alone 6.25 μg/ml
  growth/killing, Doxy Control: +
S. aureus 4250 (Tet K); Doxy alone 12.5 μg/ml
  growth/killing, Doxy Control: +
E. faecalis 158 (Tet L); [1]
  growth in MIC/MLC chart: +
E. faecalis 158 (Tet L); [2]
  growth in MIC/MLC chart: +
E. faecalis 158 (Tet L); [3]
  growth in MIC/MLC chart: +
E. faecalis 158 (Tet L); Doxy alone 1.56 μg/ml
  growth/killing, Doxy Control: +
E. faecalis 158 (Tet L); Doxy alone 3.12 μg/ml
  growth/killing, Doxy Control: +
E. faecalis 158 (Tet L); Doxy alone 6.25 μg/ml
  growth/killing, Doxy Control: +
E. faecalis 211 (Tet M); [1]
  growth in MIC/MLC chart: +
E. faecalis 211 (Tet M); [2]
  growth in MIC/MLC chart: +
E. faecalis 211 (Tet M); [3]
  growth in MIC/MLC chart: +
E. faecalis 211 (Tet M); [4]
  growth in MIC/MLC chart: +
E. faecalis 211 (Tet M); Doxy alone 1.56 μg/ml
  growth/killing, Doxy Control: +
E. faecalis 211 (Tet M); Doxy alone 3.12 μg/ml
  growth/killing, Doxy Control: +
E. faecalis 211 (Tet M); Doxy alone 6.25 μg/ml
  growth/killing, Doxy Control: +
E. faecalis 211 (Tet M); Doxy alone 12.5 μg/ml
  growth/killing, Doxy Control: +

## CCCSCC1c2cccc(O)c2C(=O)C2=C(O)C3(O)C(=O)C(C(N)=O)=C(O)C(N(C)C)C3C(OC(=O)CC)C21 (stereo not shown) [Cmpd 13-propyl-thio-5-proprionate]
E. coli DI-299 (Tet A); [5]
  growth in MIC/MLC chart: +
E. coli DI-299 (Tet A); Analog Control: analog alone 3.12 μg/ml
  growth in MIC/MLC chart: +
E. coli DI-299 (Tet A); Analog Control: analog alone 6.25 μg/ml
  growth in MIC/MLC chart: +
E. coli DI-299 (Tet A); Analog Control: analog alone 12.5 μg/ml
  growth in MIC/MLC chart: +
E. coli DI-299 (Tet A); Analog Control: analog alone 25.0 μg/ml
  growth in MIC/MLC chart: +
E. coli DI-299 (Tet A); Analog Control: analog alone 50.00 μg/ml
  growth in MIC/MLC chart: +
E. coli DI-299 (Tet A); [6]
  growth in MIC/MLC chart: +
E. coli DI-299 (Tet A); [7]
  growth in MIC/MLC chart: +
E. coli DI-299 (Tet A); [8]
  growth in MIC/MLC chart: +
E. coli DI-299 (Tet A); [9]
  growth in MIC/MLC chart: +
E. coli DI-299 (Tet A); [10]
  growth in MIC/MLC chart: +
E. coli DI-299 (Tet A); [11]
  growth in MIC/MLC chart: +
E. coli DI-299 (Tet A); analog 3.12 μg/ml + doxycycline 1.53 μg/ml
  growth in MIC/MLC chart: +
E. coli DI-299 (Tet A); analog 3.12 μg/ml + doxycycline 3.05 μg/ml
  growth in MIC/MLC chart: +
E. coli DI-299 (Tet A); analog 3.12 μg/ml + doxycycline 6.1 μg/ml
  growth in MIC/MLC chart: +
E. coli DI-299 (Tet A); analog 6.25 μg/ml + doxycycline 3.0 μg/ml
  growth in MIC/MLC chart: +
E. coli DI-299 (Tet A); analog 6.25 μg/ml + doxycycline 5.9 μg/ml
  growth in MIC/MLC chart: +
E. coli DI-299 (Tet A); analog 6.25 μg/ml + doxycycline […]
  growth in MIC/MLC chart: +
E. coli DI-299 (Tet A); analog 12.5 μg/ml + doxycycline 2.8 μg/ml
  growth in MIC/MLC chart: +
E. coli DI-299 (Tet A); analog 12.5 μg/ml + doxycycline 5.5 μg/ml
  growth in MIC/MLC chart: +
E. coli DI-299 (Tet A); analog 12.5 μg/ml + doxycycline […]
  growth in MIC/MLC chart: +
E. coli DI-299 (Tet A); analog 25 μg/ml + doxycycline 2.4 μg/ml
  growth in MIC/MLC chart: +
E. coli DI-299 (Tet A); analog 25 μg/ml + doxycycline 4.7 μg/ml
  growth in MIC/MLC chart: +
E. coli DI-299 (Tet A); analog 25 μg/ml + doxycycline […]
  growth in MIC/MLC chart: +
E. coli DI-299 (Tet A); analog 50 μg/ml + doxycycline 1.56 μg/ml
  growth in MIC/MLC chart: +
E. coli DI-299 (Tet A); analog 50 μg/ml + doxycycline 3.12 μg/ml
  growth in MIC/MLC chart: +
E. coli DI-299 (Tet A); analog 50 μg/ml + doxycycline .78 μg/ml
  growth in MIC/MLC chart: +
E. coli DI-299 (Tet A); [12]
  growth in MIC/MLC chart: +
E. coli DI-299 (Tet A); [13]
  growth in MIC/MLC chart: +
E. coli DI-299 (Tet A); [14]
  growth in MIC/MLC chart: +
E. coli DI-299 (Tet A); [15]
  growth in MIC/MLC chart: +
E. coli DI-299 (Tet A); [16]
  growth in MIC/MLC chart: +
E. coli DI-299 (Tet A); [17]
  growth in MIC/MLC chart: +
E. coli DI-299 (Tet A); [18]
  growth in MIC/MLC chart: +
E. coli DI-299 (Tet A); [19]
  growth in MIC/MLC chart: +
E. coli DI-299 (Tet A); [20]
  growth in MIC/MLC chart: +
E. coli DI-299 (Tet A); [21]
  growth in MIC/MLC chart: +
E. coli DI-299 (Tet A); [22]
  growth in MIC/MLC chart: +
E. coli DI-299 (Tet A); analog .78 μg/ml + doxycycline 12.4 μg/ml
  growth in MIC/MLC chart: +
S. aureus 4250 (Tet K); [6]
  growth in MIC/MLC chart: +
S. aureus 4250 (Tet K); [12]
  growth in MIC/MLC chart: +
E. faecalis 158 (Tet L); [6]
  growth in MIC/MLC chart: +
E. faecalis 158 (Tet L); [7]
  growth in MIC/MLC chart: +
E. faecalis 158 (Tet L); [8]
  growth in MIC/MLC chart: +
E. faecalis 158 (Tet L); [12]
  growth in MIC/MLC chart: +
E. faecalis 158 (Tet L); [13]
  growth in MIC/MLC chart: +
E. faecalis 211 (Tet M); [5]
  growth in MIC/MLC chart: +
E. faecalis 211 (Tet M); [6]
  growth in MIC/MLC chart: +
E. faecalis 211 (Tet M); [7]
  growth in MIC/MLC chart: +
E. faecalis 211 (Tet M); [8]
  growth in MIC/MLC chart: +
E. faecalis 211 (Tet M); [9]
  growth in MIC/MLC chart: +
E. faecalis 211 (Tet M); [10]
  growth in MIC/MLC chart: +
E. faecalis 211 (Tet M); [11]
  growth in MIC/MLC chart: +
E. faecalis 211 (Tet M); [12]
  growth in MIC/MLC chart: +
E. faecalis 211 (Tet M); [13]
  growth in MIC/MLC chart: +
E. faecalis 211 (Tet M); [14]
  growth in MIC/MLC chart: +
E. faecalis 211 (Tet M); [15]
  growth in MIC/MLC chart: +
E. faecalis 211 (Tet M); [16]
  growth in MIC/MLC chart: +
E. faecalis 211 (Tet M); [17]
  growth in MIC/MLC chart: +
E. faecalis 211 (Tet M); [18]
  growth in MIC/MLC chart: +
E. faecalis 211 (Tet M); [19]
  growth in MIC/MLC chart: +
E. faecalis 211 (Tet M); [20]
  growth in MIC/MLC chart: +
E. faecalis 211 (Tet M); [21]
  growth in MIC/MLC chart: +
E. faecalis 211 (Tet M); [22]
  growth in MIC/MLC chart: +
